Format in all cases: physicochemical
Series [1] is described as follows: Solubility experiment in different media. As to conditions: room temperature, 24 hours. The protocol: The vials were placed on a spin mixer overnight at room temperature. After 24 hours, the sample solution was filtered through a 0.45 μm mixed aqueous fiber membrane. The content of the compound in the filtrate was determined by HPLC. [table]
Series [2] in a line: Screening of the salt form and of the crystal form of the salt. As to conditions: 40 to 50° C., stirred overnight. As to the method: 2.1 Screening of the salt form of the compound
2.1.1 Experimental objective: To screen the salt form of the compound.
Salt forming by solventing out or suspension: 10 mg of compound 2-(2-cyano-5-oxo-8-(trifluoromethyl)pyrazolo[1,5-a]pyrido[3,2-e]pyrimidin-4(5H)-yl)-N-(5-fluoropyridin-2-yl)acetamide was weighed, to which 200 μL to 400 μL of solvent was added. The solution was stirred at 40 to 50° C., to which different acids were added respectively. The solution was stirred overnight, cooled to room temperature, filtered, and dried to obtain the salt of the compound.
3.1 Study on the crystal form of the salt of 2-(2-cyano-5-oxo-8-(trifluoromethyl)pyrazolo[1,5-a]pyrido[3,2-e]pyrimidin-4(5H)-yl)-N-(5-fluoropyridin-2-yl)acetamide
3.1.1 Experimental objective: To screen the salt of compound 2-(2-cyano-5-oxo-8-(trifluoromethyl)pyrazolo[1,5-a]pyrido[3,2-e]pyrimidin-4(5H)-yl)-N-(5-fluoropyridin-2-yl)acetamide that can form a crystal form.
2) Operating procedures: Salt forming by solventing out or suspension: 10 mg of the compound was weighed, to which 200 μL to 400 μL of solvent was added. The solution was stirred at 40 to 50° C., to which different acids were added respectively. The solution was stirred overnight, cooled to room temperature, filtered, and dried to obtain the salt of the compound.

A short description of series [3]: Hygroscopicity experiment (DVS). As to conditions: 25° C. The text has this: 7.1 Hygroscopicity experiment of crystal forms of different salts of compound 2-(2-cyano-5-oxo-8-(trifluoromethyl)pyrazolo[1,5-a]pyrido[3,2-e]pyrimidin-4(5H)-yl)-N-(5-fluoropyridin-2-yl)acetamide
7.1.1 Experimental objective: To investigate the hygroscopicity of crystal forms of different salts of compound 2-(2-cyano-5-oxo-8-(trifluoromethyl)pyrazolo[1,5-a]pyrido[3,2-e]pyrimidin-4(5H)-yl)-N-(5-fluoropyridin-2-yl)acetamide at different relative humidity, so as to provide a basis for storage.
7.1.2 Experimental protocol: Crystal forms of different salts of the compound were placed in saturated water vapor with different relative humidity to achieve dynamic equilibrium between the compound and water vapor, and the percentage of hygroscopic weight gain of the compound after equilibrium was calculated.

Setting [4] is: solvent Dichloromethane (400 μL).
Where [5] appears, read: solvent Tetrahydrofuran (200 μL).
[6] abbreviates: Cycle 1, target relative humidity 0.0%.
[7] abbreviates: Cycle 1, target relative humidity 10.0%.
[8] abbreviates: Cycle 1, target relative humidity 20.0%.
Where [9] appears, read: Cycle 1, target relative humidity 30.0%.
Setting [10] is: Cycle 1, target relative humidity 40.0%.
The mark [11] stands for this setting: Cycle 1, target relative humidity 50.0%.
[12] abbreviates: Cycle 1, target relative humidity 60.0%.
Setting [13] is: Cycle 1, target relative humidity 70.0%.
The mark [14] stands for this setting: Cycle 1, target relative humidity 80.0%.
Where [15] appears, read: Cycle 1, target relative humidity 90.0%.
[16] abbreviates: Cycle 1, target relative humidity 95.0%.
Where [17] appears, read: Cycle 2, target relative humidity 0.0%.
Where [18] appears, read: Cycle 2, target relative humidity 10.0%.
The mark [19] stands for this setting: Cycle 2, target relative humidity 20.0%.
Setting [20] is: Cycle 2, target relative humidity 30.0%.
Where [21] appears, read: Cycle 2, target relative humidity 40.0%.
[22] abbreviates: Cycle 2, target relative humidity 50.0%.
Setting [23] is: Cycle 2, target relative humidity 60.0%.
Setting [24] is: Cycle 2, target relative humidity 70.0%.
The mark [25] stands for this setting: Cycle 2, target relative humidity 80.0%.
Setting [26] is: Cycle 2, target relative humidity 90.0%.
Where [27] appears, read: Cycle 2, target relative humidity 95.0%.

Molecules are shown by their SMILES. ≈ marks a conversion by molar mass, not a printed value.

`N#Cc1cc2n(CC(=O)Nc3ccc(F)cn3)c(=O)c3ccc(C(F)(F)F)nc3n2n1` [crystal form II of the free base, 2-(2-cyano-5-oxo-8-(trifluoromethyl)pyrazolo[1,5-a]pyrido[3,2-e]pyrimidin-4(5H)-yl)-N-(5-fluoropyridin-2-yl)acetamide free base]: the Solubility (as a rule, how much of the substance goes into solution per volume) in series [1] (FaSSGF) was determined as 0.7 µg/mL (≈ 1.62 µM); in series [1] (FaSSIF), 1.1 µg/mL (≈ 2.55 µM); in series [1] (FeSSIF), 2.5 µg/mL (≈ 5.8 µM); in series [1] (H2O) it was 0.6 µg/mL (≈ 1.39 µM); in series [1] (USP Buffer pH 1) it was 0.6 µg/mL (≈ 1.39 µM); in series [1] (USP Buffer pH 2) it was 0.6 µg/mL (≈ 1.39 µM). The Solubility in series [1] (USP Buffer pH 3) worked out at 1.1 µg/mL (≈ 2.55 µM); in series [1] (USP Buffer pH 4) it was 1 µg/mL (≈ 2.32 µM); in series [1] (USP Buffer pH 5), 0.8 µg/mL (≈ 1.85 µM); in series [1] (USP Buffer pH 6), 0.6 µg/mL (≈ 1.39 µM); in series [1] (USP Buffer pH 7), 0.5 µg/mL (≈ 1.16 µM); in series [1] (USP Buffer pH 8) it was 0.5 µg/mL (≈ 1.16 µM).
Consider `Cl` [Hydrochloric acid], for which the “Results (salt forming with acid, 1M in EtOH)” value (from here on “Results”) in series [2] (solvent 2-Butanone (250 μL)), in series [2] (solvent Acetone (400 μL)), in series [2] (setting [4]), in series [2] (solvent Methanol (400 μL)) and in series [2] (setting [5]) was “Crystal form” in each case.
Turning to `Br` [Hydrobromic acid], the “Results” value in series [2] (solvent 2-Butanone (250 μL)), in series [2] (solvent Acetone (400 μL)), in series [2] (setting [4]), in series [2] (solvent Methanol (400 μL)) and in series [2] (setting [5]) was “Crystal form” throughout.
`CCS(=O)(=O)O` [Ethanesulfonic acid]: the “Results” value in series [2] (solvent 2-Butanone (250 μL)), in series [2] (solvent Acetone (400 μL)), in series [2] (setting [4]), in series [2] (solvent Methanol (400 μL)) and in series [2] (setting [5]) was “Crystal form” in each case.
In the case of `CS(=O)(=O)O` [Methanesulfonic acid], the “Results” value in series [2] (solvent 2-Butanone (250 μL)), in series [2] (solvent Acetone (400 μL)), in series [2] (setting [4]), in series [2] (solvent Methanol (400 μL)) and in series [2] (setting [5]) was “Crystal form” throughout.
As for `O=S(=O)(O)O` [Sulfuric acid], the “Results” value in series [2] (solvent 2-Butanone (250 μL)), in series [2] (solvent Acetone (400 μL)), in series [2] (setting [4]), in series [2] (solvent Methanol (400 μL)) and in series [2] (setting [5]) was “Crystal form” throughout.
Turning to `Cl.N#Cc1cc2n(CC(=O)Nc3ccc(F)cn3)c(=O)c3ccc(C(F)(F)F)nc3n2n1` [Hydrochloride (crystal form A), 2-(2-cyano-5-oxo-8-(trifluoromethyl)pyrazolo[1,5-a]pyrido[3,2-e]pyrimidin-4(5H)-yl)-N-(5-fluoropyridin-2-yl)acetamide hydrochloride], the “% percentage of mass change, Desorption” value in series [3] (setting [6]) was −0.041%; in series [3] (setting [7]), 0.130%; in series [3] (setting [8]), 0.313%; in series [3] (setting [9]), 7.258%; in series [3] (setting [10]), 7.532%; in series [3] (setting [11]) it was 7.722%. In addition, the “% percentage of mass change, Desorption” value in series [3] (setting [12]) was 7.825%; in series [3] (setting [13]) it was 7.898%; in series [3] (setting [14]) it was 7.968%; in series [3] (setting [15]), 8.071%; in series [3] (setting [16]) it was 8.141%; in series [3] (setting [17]), −0.062%. The “% percentage of mass change, Desorption” value in series [3] (setting [18]) was 0.098%; in series [3] (setting [19]) it was 0.273%; in series [3] (setting [20]), 7.191%; in series [3] (setting [21]), 7.462%; in series [3] (setting [22]), 7.649%; in series [3] (setting [23]) it was 7.738%. The “% percentage of mass change, Desorption” value in series [3] (setting [24]) came to 7.806%; in series [3] (setting [25]), 7.872%; in series [3] (setting [26]), 7.972%; in series [3] (setting [27]) it was 8.047%. Also, the “% percentage of mass change, Sorption” value in series [3] (setting [6]) was 0.000%; in series [3] (setting [7]), 0.131%; in series [3] (setting [8]), 0.275%; in series [3] (setting [9]), 4.325%; in series [3] (setting [10]) it was 7.346%; in series [3] (setting [11]) it was 7.466%. In addition, the “% percentage of mass change, Sorption” value is recorded as 7.581% in series [3] (setting [12]); 7.709% in series [3] (setting [13]); 7.840% in series [3] (setting [14]); 8.018% in series [3] (setting [15]); 8.141% in series [3] (setting [16]); −0.041% in series [3] (setting [17]). Moreover, the “% percentage of mass change, Sorption” value in series [3] (setting [18]) was 0.095%; in series [3] (setting [19]), 0.236%; in series [3] (setting [20]), 5.345%; in series [3] (setting [21]), 7.269%; in series [3] (setting [22]) it was 7.383%; in series [3] (setting [23]), 7.492%. Moreover, the “% percentage of mass change, Sorption” value worked out at 7.610% in series [3] (setting [24]), 7.745% in series [3] (setting [25]), 7.925% in series [3] (setting [26]) and 8.047% in series [3] (setting [27]).

The record behind these values is patent US20240376108A1, “SALT AND CRYSTAL FORM OF PYRAZOLE-CONTAINING POLYCYCLIC DERIVATIVE, AND PREPARATION METHOD THEREFOR AND USE THEREOF” (Shanghai Hansoh Biomedical Co., Ltd., priority 2021, published 2024).
